Measurements: PubChem BioAssay AID248 (DTP/NCI, 2004)
Inconclusive results and toxic doses are left out.

Test system: L1210 leukemia ip in BDF1 mice, survival T/C
Assay: NCI In Vivo Anticancer Drug Screen. Data for tumor model L1210 Leukemia (intraperitoneal) in B6D2F1 (BDF1) mice
Conditions: endpoint: mean survival time, higher = longer survival
How it was run: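 Tumor cells were implanted, animals were treated, and survival was followed. The result divides the treated measurement by the vehicle-control measurement.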

[1] = dose: 100.0 mg/kg/injection, schedule: Q01DX009 (ip), vehicle: Klucel (hydroxypropylcellulose) (HPC)
[2] = dose: 100.0 mg/kg/injection, schedule: Q04DX003 (ip), vehicle: Klucel (hydroxypropylcellulose) (HPC)
[3] = dose: 200.0 mg/kg/injection, schedule: Q01DX009 (ip), vehicle: Klucel (hydroxypropylcellulose) (HPC)
[4] = dose: 200.0 mg/kg/injection, schedule: Q04DX003 (ip), vehicle: Klucel (hydroxypropylcellulose) (HPC)
[5] = dose: 400.0 mg/kg/injection, schedule: Q01DX009 (ip), vehicle: Klucel (hydroxypropylcellulose) (HPC)
[6] = dose: 400.0 mg/kg/injection, schedule: Q04DX003 (ip), vehicle: Klucel (hydroxypropylcellulose) (HPC)
[7] = dose: 100.0 mg/kg/injection, schedule: Q01DX001 (ip), vehicle: saline
[8] = dose: 200.0 mg/kg/injection, schedule: Q01DX001 (ip), vehicle: saline
[9] = dose: 400.0 mg/kg/injection, schedule: Q01DX001 (ip), vehicle: saline
[10] = dose: 100.0 mg/kg/injection, schedule: Q01DX001 (ip), vehicle: Klucel (hydroxypropylcellulose) (HPC)
[11] = dose: 200.0 mg/kg/injection, schedule: Q01DX001 (ip), vehicle: Klucel (hydroxypropylcellulose) (HPC)
[12] = dose: 50.0 mg/kg/injection, schedule: Q01DX001 (ip), vehicle: saline

O=[N+]([O-])c1cc(Cl)cc2c1nc(Cl)c1ccccc12
T/C [1]: 94 % of control | T/C [2]: 100 % of control | T/C [3]: 91 % of control | T/C [4]: 98 % of control | T/C [5]: 91 % of control | T/C [6]: 100 % of control

ClB(Cl)c1ccc(Br)cc1
T/C [7]: 97 % of control | T/C [8]: 86 % of control | T/C [9]: 95 % of control

S=C(Cc1ccccc1)N1CCCCC1
T/C [1]: 108 % of control | T/C [2]: 100 % of control | T/C [3]: 98 % of control | T/C [4]: 101 % of control | T/C [5]: 95 % of control

O=S(=O)(CCO)c1ccc2ccccc2c1
T/C [10]: 101 % of control | T/C [2]: 101 % of control | T/C [11]: 98 % of control | T/C [4]: 97 % of control | T/C (dose: 400.0 mg/kg/injection, schedule: Q01DX001 (ip), vehicle: Klucel (hydroxypropylcellulose) (HPC)): 98 % of control | T/C [6]: 105 % of control

CC1(C)CN(C(C)(C)C)CC(C)(C)C(=O)C1=O
T/C (dose: 50.0 mg/kg/injection, schedule: Q01DX001 (ip), vehicle: saline sonified): 91 % of control | T/C (dose: 100.0 mg/kg/injection, schedule: Q01DX001 (ip), vehicle: saline sonified): 98 % of control | T/C (dose: 200.0 mg/kg/injection, schedule: Q01DX001 (ip), vehicle: saline sonified): 87 % of control

CC12CCC(O)CC1CCC1C3CC/C(=C\c4ccco4)C(=O)C3CCC12 (stereo unspecified)
T/C (dose: 50.0 mg/kg/injection, schedule: Q01DX001 (sc), vehicle: steriod suspending solution): 105 % of control | T/C (dose: 100.0 mg/kg/injection, schedule: Q01DX001 (sc), vehicle: steriod suspending solution): 89 % of control | T/C (dose: 200.0 mg/kg/injection, schedule: Q01DX001 (sc), vehicle: steriod suspending solution): 91 % of control

O=C(Nc1ccc(C2=NCCCN2)cc1)Nc1ccc(NC(=O)Nc2ccc(C3=NCCCN3)cc2)c(Cl)c1
T/C (dose: 62.0 mg/kg/injection, schedule: Q01DX Z (ip), vehicle: carboxymethylcellulose (CMC)): 163 % of control | T/C (dose: 62.0 mg/kg/injection, schedule: Q01DX Z (oral), vehicle: carboxymethylcellulose (CMC)): 110 % of control | T/C (dose: 125.0 mg/kg/injection, schedule: Q01DX Z (oral), vehicle: carboxymethylcellulose (CMC)): 110 % of control | T/C (dose: 250.0 mg/kg/injection, schedule: Q01DX Z (oral), vehicle: carboxymethylcellulose (CMC)): 116 % of control | T/C (dose: 500.0 mg/kg/injection, schedule: Q01DX Z (oral), vehicle: carboxymethylcellulose (CMC)): 111 % of control

CCOC(OCC)c1ccccc1 (tested in a mixture with another compound)
T/C (dose: 100.0 mg/kg/injection, schedule: Q01DX009 (ip), vehicle: saline with Tween-80): 100 % of control | T/C (dose: 200.0 mg/kg/injection, schedule: Q01DX009 (ip), vehicle: saline with Tween-80): 100 % of control | T/C (dose: 400.0 mg/kg/injection, schedule: Q01DX009 (ip), vehicle: saline with Tween-80): 94 % of control

CC(C)(C)NC[Si](C)(C)C
T/C (dose: 100.0 mg/kg/injection, schedule: Q01DX009 (ip), vehicle: saline): 92 % of control

O=C(CCCC(=O)NNC(=O)Nc1cccc([N+](=O)[O-])c1)NNC(=O)Nc1cccc([N+](=O)[O-])c1
T/C [12]: 102 % of control | T/C [7]: 102 % of control | T/C [8]: 96 % of control | T/C [9]: 102 % of control

CC(C)=CCC(CCN1CCCC1)(C(N)=O)c1cccc2ccccc12 (stereo unspecified)
T/C (dose: 5.0 mg/kg/injection, schedule: Q01DX009 (ip), vehicle: Klucel (hydroxypropylcellulose) (HPC)): 102 % of control | T/C (dose: 5.0 mg/kg/injection, schedule: Q04DX003 (ip), vehicle: Klucel (hydroxypropylcellulose) (HPC)): 98 % of control | T/C (dose: 10.0 mg/kg/injection, schedule: Q01DX009 (ip), vehicle: Klucel (hydroxypropylcellulose) (HPC)): 95 % of control | T/C (dose: 10.0 mg/kg/injection, schedule: Q04DX003 (ip), vehicle: Klucel (hydroxypropylcellulose) (HPC)): 104 % of control | T/C (dose: 20.0 mg/kg/injection, schedule: Q01DX009 (ip), vehicle: Klucel (hydroxypropylcellulose) (HPC)): 98 % of control | T/C (dose: 20.0 mg/kg/injection, schedule: Q04DX003 (ip), vehicle: Klucel (hydroxypropylcellulose) (HPC)): 104 % of control

O=C(COc1ccc(Cl)c(Cl)c1)NCCc1cc[n+](Cc2ccc(Cl)c(S(=O)(=O)F)c2)cc1
T/C [10]: 96 % of control | T/C [11]: 94 % of control

COc1ccc2cc(C(C)=O)ccc2c1
T/C [12]: 117 % of control | T/C [7]: 105 % of control | T/C [8]: 100 % of control | T/C [9]: 110 % of control
